Source: patent US11642333B2, “Inhalable formulation of a solution containing vilanterol trifenatate and umeclidinium bromide” (ANOVENT PHARMACEUTICAL (U.S.), LLC, priority 2019, dated 2023)

Key:
[1] = in vivo; cited from earlier work
[2] = Content of umeclidinium bromide and vilanterol trifenatate in the inhalation solutions (tested results); format: physicochemical
Experimental: 50% benzalkonium chloride and tween-80 according to table 1, were dissolved in 16 g of 95% ethanol for three times, and then transferred into 100 ml volumetric flask. […] Finally, the flask was made to volume with purified water.
50% benzalkonium chloride and tween-80 according to table 3, were dissolved in 95% ethanol according to table 3 for three times, and then transferred into 100 ml volumetric flask. […] Finally, the flask was made to volume with purified water.
50% benzalkonium chloride and tween-80 according to table 5, were dissolved in 95% ethanol according to table 5 for three times, and then transferred into 100 ml volumetric flask. […] Finally, the flask was made to volume with purified water.

Question: Which oral bioavailability [1] does the source give for `OC(c1ccccc1)(c1ccccc1)C12CC[N+](CCOCc3ccccc3)(CC1)CC2.[Br-]` [Umeclidinium bromide, 1-[2-(Benzyloxy)ethyl]-4-(hydroxydiphenylmethyl)-1-azoniabicyclo [2.2.2] octane bromide] here?
Answer: poor

Question: And the “Dissolution in the solution containing ethanol and tween-80” value (“Dissolution” below) ([2]; sample I and sample II (table 2))?
Answer: completely dissolved

Question: And the “Dissolution” value ([2]; sample III, sample IV and sample V (table 4))?
Answer: completely dissolved

Question: What about the “Dissolution” value ([2]; sample VI, sample VII and sample VIII (table 6)) of the same compound?
Answer: completely dissolved
